Test results as given in PMC6331910, “The Curcumin Analogue 1,5-Bis(2-hydroxyphenyl)-1,4-pentadiene-3-one Induces Apoptosis and Downregulates E6 and E7 Oncogene Expression in HPV16 and HPV18-Infected Cervical Cancer Cells” (Molecules, 2015).

Legend:
[1] = test system: C4-2 prostate cancer cells; set-up: method as in PMID 21796654; conditions: cited from earlier work
[2] = test system: LNCaP prostate cancer cells; set-up: method as in PMID 21796654; conditions: cited from earlier work
HeLa [3] = assay: DNA fragmentation, Cell Death Detection ELISA (cytoplasmic nucleosomal enrichment); type: cell-based, human
Method: Each experiment included a set of untreated control cells (Media with DMSO alone). The enrichment of the cytoplasm of treated cells by mono- and oligonucleosomes are used to study whether enhanced DNA fragmentation is induced by diarylpentanoid treatment. This determination was made following the manufacturer’s instructions of the Cell Death Detection ELISA^PLUS kit (Roche Diagnostics, Mannheim, Germany). […] Following treatment, the cells were incubated in lysis buffer and centrifuged, after which the supernatant was transferred to streptavidin coated plates and shaken with the provided immunoreagent (mixture of anti-DNA-POD and anti-histone biotin) for 2 h. […] Enrichment factor, defined as the release of mono- and oligonucleosomes into the cytoplasm, was calculated using the formula below: (4) Enrichment factor =Absorbance of Test − Absorbance of Blank (substrate only)/Absorbance of Control − Absorbance of Blank (substrate only)

HeLa [4] = assay: MTT cell viability (dose-dependent cytotoxicity) assay, 72 h; type: cell-based, human
Method: (§1) Control-treated wells contained cells incubated in media with equal volumes of DMSO (0.2%). […] The media was aspirated and cells were incubated in 100 µL complete medium with 0.5 mg/mL MTT solution for 4 h in the dark to allow metabolism of MTT by cellular mitochondrial dehydrogenases. The excess MTT was aspirated and the formazan crystals formed were dissolved by the addition of 100 µL of DMSO. The absorbance of dark blue formazan was read at 570/650 nm wavelengths using a microplate reader (Bio-Rad Benchmark Plus Microplate Spectrophotometer, Hercules, CA, USA). Triplicate absorbance values were averaged and the effect of the compounds on growth inhibition was assessed as percentage cell viability as follows: […] The results were analysed using GraphPad Prism version 6.00 for Windows (GraphPad Software, La Jolla, CA, USA). […] Overall EC50 was determined by taking the average EC50 from three independent experiments.

CaSki [5] = assay: as above; type: cell-based, human; conditions: for reduction in cell viability: CaSki
Method: as §1

MRC9 = assay: MTT cell viability (cytotoxicity) assay on non-cancerous lung fibroblasts, 72 h; type: cell-based; conditions: Homo sapiens, MRC9; MTT, 72 h, non-cancerous lung fibroblasts; read-out: EC50 (Mean ± S.E.M.) MRC9
Method: HeLa, CaSki and MRC9 cells were plated in triplicate wells in 96-well flat-bottomed tissue culture plates (Nunc, Roskilde, Denmark) with 10^5 cells per mL in 100 μL culture media with working concentrations of diarylpentanoid treatment ranging from 1.6 to 100 μM. Control-treated wells contained cells incubated in media with equal volumes of DMSO (0.2%). Cells were treated for 72 h for dose-dependent cytotoxicity assays and at 24, 48 and 72 h for anti-proliferative (time-dependent) assays. In order to assess cell viability and anti-proliferative activity after diarylpentanoid treatment, the colorimetric 3-(4,5-dimethylthiazol-2-yl)-2,5-diphenyltetrazolium bromide (MTT) assay was performed as previously described with modifications. The media was aspirated and cells were incubated in 100 µL complete medium with 0.5 mg/mL MTT solution for 4 h in the dark to allow metabolism of MTT by cellular mitochondrial dehydrogenases. The excess MTT was aspirated and the formazan crystals formed were dissolved by the addition of 100 µL of DMSO. The absorbance of dark blue formazan was read at 570/650 nm wavelengths using a microplate reader (Bio-Rad Benchmark Plus Microplate Spectrophotometer, Hercules, CA, USA). Triplicate absorbance values were averaged and the effect of the compounds on growth inhibition was assessed as percentage cell viability as follows: (1) Percentage cell viability =Absorbance of Test − Absorbance of Blank (media only)/Absorbance of Control − Absorbance of Blank (media only) × 100 where, absorbance = optical density of sample, O.D.; control = untreated sample; test = treated sample.
The results were analysed using GraphPad Prism version 6.00 for Windows (GraphPad Software, La Jolla, CA, USA). Using percentage cell viability Equation (1), log dose–response curves were constructed, from which the half maximal effective concentration, EC50 for each replicate was determined. Overall EC50 was determined by taking the average EC50 from three independent experiments. […] (3) Selectivity Index (SX) =EC50 (MRC9)/EC50 (Cancer cell line) × 100

CaSki [6] = assay: Acridine orange/ethidium bromide double staining, quantification of viable, apoptotic and necrotic cells; type: cell-based, human
Method: HeLa, 9 μM] at various time points. Each experiment included a set of untreated control cells (Media with DMSO alone). Double staining with acridine orange and ethidium bromide and consequently fluorescent microscopic analysis is an established method by which to distinguish between viable, necrotic and apoptotic cells. […] Following treatment, the cells were pelleted, washed twice in 1× PBS and resuspended in 50 μL 1× PBS. 1 μL of dye mixture (1 part 100 μg/mL acridine orange in PBS and 1 part 100 μg/mL ethidium bromide in PBS) was added to 10 μL of cell suspension and the entire volume was placed on a clean microscope slide. Cells were examined by fluorescence microscopy using the fluorescein filter (BX41, Olympus, Melville, NY, USA) and were distinguished via the morphological aspect of chromatin condensation in stained nuclei as previously established. A minimum of 200 cells were counted per sample and the percentage of cells from each population (viable, live apoptotic, dead apoptotic, necrotic) was calculated.

**Q.** Which “concentration causing significant cell death” value [1] does the source give for O=C(C=Cc1ccccc1O)C=Cc1ccccc1O [MS17, 1,5-bis(2-hydroxyphenyl)-1,4-pentadiene-3-one] here?
**A.** more than 2.5 μM

**Q.** What about the “concentration causing significant cell death” value [2] of the same compound?
**A.** > 10 µM

**Q.** What about the “increase in nucleosome enrichment” value (HeLa [3]; 6 μM, 24 h, vs untreated) of the same compound?
**A.** 2.2 fold

**Q.** And the “increase in enrichment factor” value (HeLa [3]; 6 μM, 48 h, vs untreated)?
**A.** approximately two-fold

**Q.** What about the enrichment factor (HeLa [3]; 6 and 9 μM, 72 h) of the same compound?
**A.** significant reduction of enrichment factor

**Q.** What about the “Selective Index HeLa” value (HeLa [4]; EC50 (MRC9)/EC50 (HeLa) × 100) of the same compound?
**A.** 177

**Q.** What about the cell viability (HeLa [4]; HeLa, 12.5 to 100 μM, 72 h) of the same compound?
**A.** less than 10%

**Q.** What about the EC50 (HeLa [4]; Homo sapiens, HeLa, MTT, 72 h, read-out: EC50 (Mean ± S.E.M.) HeLa) of the same compound?
**A.** 2600 ± 900 nM

**Q.** And the viability at 3.1 µM (HeLa [4]; Homo sapiens, HeLa, 3.1 μM, 72 h)?
**A.** 36%

**Q.** What about the viability at 6.3 µM (HeLa [4]; Homo sapiens, HeLa, 6.3 μM, 72 h) of the same compound?
**A.** 14%

**Q.** And the “reduction in cell viability” value (CaSki [5]; 1.6 μM, 72 h)?
**A.** 30%

**Q.** What about the “reduction in cell viability” value (CaSki [5]; 3.1 to 100 μM, 72 h) of the same compound?
**A.** 90%

**Q.** What about the “Selective Index CaSki” value (CaSki [5]; EC50 (MRC9)/EC50 (CaSki) × 100) of the same compound?
**A.** 447

**Q.** What about the EC50 (CaSki [5]; Homo sapiens, Ca-Ski, MTT, 72 h, read-out: EC50 (Mean ± S.E.M.) CaSki) of the same compound?
**A.** 1030 ± 500 nM

**Q.** What about the EC50 (MRC9) of the same compound?
**A.** 4600 ± 1200 nM

**Q.** And the early apoptotic cells (CaSki [6]; 2 µM, 24 h)?
**A.** 10%

**Q.** What about the early apoptotic cells (CaSki [6]; 2 µM, 48 h) of the same compound?
**A.** 20%

**Q.** And the early apoptotic cells (CaSki [6]; 4 µM, 24 h)?
**A.** 85%

**Q.** And the early apoptotic cells (CaSki [6]; 4 μM, 48 h)?
**A.** 75%

**Q.** What about the early apoptotic cells (CaSki [6]; 6 µM, 24 h) of the same compound?
**A.** 55%

**Q.** What about the necrotic cells (CaSki [6]; 6 µM, 24 h) of the same compound?
**A.** 30%

**Q.** What about the early apoptotic cells (CaSki [6]; 6 µM, 48 h) of the same compound?
**A.** 30%

**Q.** And the necrotic cells (CaSki [6]; 6 µM, 48 h)?
**A.** 50%

**Q.** And the necrotic cells (CaSki [6]; 2 and 4 µM, 24 and 48 h)?
**A.** ~ 10%

**Q.** And the viable cells (CaSki [6]; 24 h, end of dose-dependent decrease (2–6 µM))?
**A.** less than 5%

**Q.** And the viable cells (CaSki [6]; 48 h, with increasing treatment dose (2–6 µM))?
**A.** less than 5%
